Test results as given in patent publication US9518065B2, “IRAK inhibitors and uses thereof” (NIMBUS IRIS, INC., priority 2013, dated 2016).
Where two headings read alike, the source gives them in different places.

Legend:
IRAK4 = biological target: T1, IRAK4 (Homo sapiens, UniProt Q9NWZ3); test: IRAK-4 activity inhibition assay (Caliper); assay type: biochemical; settings: 3.5 nM IRAK4, 37 μM ATP, 1.5 μM Peptide 8
T1 construct: purchased CARNA Bioscience 09-145
T1 sequence (Q9NWZ3 1-460): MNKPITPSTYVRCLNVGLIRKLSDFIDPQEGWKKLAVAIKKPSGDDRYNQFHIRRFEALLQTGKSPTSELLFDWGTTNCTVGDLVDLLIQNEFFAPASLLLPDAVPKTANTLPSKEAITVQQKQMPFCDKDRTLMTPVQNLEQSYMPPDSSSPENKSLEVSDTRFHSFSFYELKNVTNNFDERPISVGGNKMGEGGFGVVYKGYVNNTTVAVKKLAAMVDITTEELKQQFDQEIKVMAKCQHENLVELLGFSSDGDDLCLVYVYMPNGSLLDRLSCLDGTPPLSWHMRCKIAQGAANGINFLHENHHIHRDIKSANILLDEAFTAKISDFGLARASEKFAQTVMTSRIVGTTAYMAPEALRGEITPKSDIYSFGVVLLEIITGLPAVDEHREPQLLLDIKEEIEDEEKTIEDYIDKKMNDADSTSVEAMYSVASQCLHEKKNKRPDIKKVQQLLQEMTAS
Method in brief: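 Caliper mobility-shift assay: 3.5 nM IRAK4 preincubated 10 min with compound (10-point series, duplicates), then 1.5 μM peptide 8 and 37 μM ATP added in HEPES pH 7.5 with Mg2+/Mn2+ and DTT, 40 min at 28°C before EDTA stop. Percent inhibition from substrate conversion relative to DMSO and no-enzyme controls.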

[1] = test system: TNFα and IL8 production in THP-1 cells; test: LPS induced cytokine (TNFα and IL8) production assay in THP-1 cells; assay type: cell-based; settings: Homo sapiens, 300 ng/mL LPS
Method: Provided compounds were also assayed in an LPS (Lipopolysacharide) or R848 (TLR-7 agonist) induced cytokine (TNFα and IL8) production assay in THP-1 cells, human white blood cells (hWBC), and whole blood. The exemplary protocol for this assay in THP-1 cells was as follows below.
THP-1 cells from ATCC (TIB-202) were cultured in RPMI Medium 1640 (Invitrogen, Cat No. A10491-01), 10% fetal bovine serum (Invitrogen, Cat No. 10099141, Lot No. 8172882) containing 100 U/mL Penicillin, 100 μg/mL streptomycin (Invitrogen, Cat No. 15140-122), and 50 uM 2-Mercaptoethanol (Invitrogen, Cat No. 21985023). LPS-EK ultra pure (Invivogen, Cat No. tlrl-peklps) was used to induce IL8 and TNFα production, that was detected in the cell culture supernatant by IL8 HTRF kit (Cisbio, Cat No. 62IL8PEB) and TNFα HTRF kit (Cisbio, Cat No. 62TNFPEB), as per manufacturer instructions. Cells were cultured in 96 well assay plates at 100,000 cells per well, and compounds diluted in final 0.3% DMSO were pre-incubated with cells for 1 hour prior to stimulation with 300 ng/mL LPS. Cytokine production in cell supernatant was measured at 5 hours for TNFα and IL8 production, and for 16 hours for IL8 production and assessment of cell viability.
The compound numbers correspond to the compound numbers in Table 1. […] “NA” stands for “not assayed.”

IC50 (IRAK4): ≤ 1000 nM
IC50 ([1]; 5 hours, read-out: TNFα production IC50): 250 to 500 nM
IC50 ([1]; 16 hours, read-out: IL8 (16 h) production IC50): 250 to 500 nM
SMILES: Cc1nc2c(N[C@H]3CC[C@H](N4CCC5(CC4)COC5)CC3)nc(Nc3cnn(C)c3)nc2s1 [Compound I-42, N7-((1r,4r)-4-(2-oxa-7-azaspiro[3.5]nonan-7-yl)cyclohexyl)-2-methyl-N5-(1-methyl-1H-pyrazol-4-yl)thiazolo[5,4-d]pyrimidine-5,7-diamine]
